Laboratory results from US20080261970A1, “Sufonamides and Uses Thereof” (ELIXIR PHARMACEUTICALS, INC., priority 2004, published 2008).
No end group written: not given here.

Tested on: mice
Assay: fast refeed (fast-refeeding) assay
Type: in vivo
Method: In vivo assays. Exemplary in vivo assays include the fast-refeeding assay described in Example 1 and as follows.
Food is removed at 6 pm for an overnight (˜16 hour) fast. Beginning at 10 am on the next morning, mice are administered with either vehicle (e.g., saline+acetic acid, pH=5) or the compound of interest. Mice are then returned to their home cages and pre-weighed food (approximately 90 grams) is immediately returned to the food hoppers in each cage. The weight of the food remaining in the food hoppers is measured at 30 minutes, 1 hour, 2 hours, and 4 hours post compound/vehicle administration. Final body weights are then recorded for the mice.

substance P (RPKPQQFFGLM; ends and bridges not checked; UniProt P20366 58-68, looked up)
feeding activity: alters feeding activity
